Laboratory results as given in patent publication US12048737B2, “Use of a vaccine targeting a cryptic tert epitope, for treating cancer in a HLA-A*0201-positive patient having a non-immunogenic tumor expressing tert” (KRIPTIC PHARMACEUTICALS LIMITED, priority 2017, dated 2024).
Where “and” joins values, the source holds several entries; their conditions need not be identical. Equal entries are not always repeated.

Legend:
[1] = system: NSCLC tumors expressing TElomerase Reverse Transcriptase (TERT); test: Vx-001-201 randomized double blind phase IIb study: clinical outcome (OS, TTF, 12 months survival); assay type: in vivo, human; conditions: without natural immunity; for HR (OS) / HR (TTF): Vx-001 vs placebo
Excerpt: The Vx-001-201 study is a randomized, double blind multicenter study done in 70 centers in France, Germany, Spain, Italy, Greece, Poland, Romania and Czech Republic. Key eligibility criteria were a) non small cell lung cancer (NSCLC), b) stage IV or recurrent stage I-III, c) disease control after platinum based first line chemotherapy according to RECIST 1.1 criteria, d) HLA-A*0201 positivity, e) tumors expressing TElomerase Reverse Transcriptase (TERT), f) ECOG 0 or 1 g) absence of brain metastasis.
• a) Principal endpoint: overall survival (OS) measured from randomization • b) Secondary endpoints: • Time to Treatment Failure (TTF) measured from randomization • OS at 12 months • c) Main exploratory objectives • Evaluation of vaccine induced specific immune response • Correlation between vaccine specific immune response and clinical response Procedures and Vaccination Protocol
Patients who fulfilled all inclusion criteria were randomized within 4 weeks after the end of first line chemotherapy.
The vaccination protocol consisted in six vaccinations at three week interval. The optimized Vx-001/TERT572Y was used in the first two vaccinations and the native Vx-001/TERT572 in the following four vaccinations. Patients who continued controlling their disease after the sixth vaccination received boost vaccination with the Vx-001/TERT572 every three months. Vaccination was stopped at disease progression (FIG. 1).
The primary and secondary endpoints were analysed in the Full Analysis Set (FAS) composed of all patients who fulfilled the five main criteria a) NSCLC, b) stage IV or recurrent stage I-III, c) disease control after first line chemotherapy, d) HLA-A*0201 positivity and e) TERT expressing tumors.
We used the Kaplan-Meier method to estimate OS and TTF in each arm and a Cox proportional hazards regression model to estimate Hazard Ratio (HR) relating OS and TTF to the treatment effect.

TERT572 peptide = test: IFNg ELISpot immunomonitoring of vaccine induced TERT572 specific immune response in PBMC; assay type: cell-based, human
[2] = Former smoker (≤20 years) (never smoked or smokers less than 20 years)
[3] = Former smoker (≤25 years) (never smoked or smokers less than 25 years)
[4] = Heavy smoker (>25 years, former or current smoker)
[5] = NS or light smoker (≤25 years, former or current smoker)

## Vx-001: vaccine composed of two nine amino acid peptides, TERT572 and TERT572Y, administered separately with the adjuvant Montanide ISA51 VG (chain 1 RLFFYRKSV; chain 2 YLFFYRKSV; Montanide ISA51 VG adjuvant; peptide from a human protein; optimized peptide)
[1]; <65 years (n = 59)
  Median survival (OS): 12.7 months
  HR (OS): 1.00
  HR (TTF): 0.84
[1]; >65 years (n = 63)
  12 months OS: 57.1%
  Median TTF: 4.4 months
  Median survival (OS): 14.1 months
  HR (OS): 0.63
  HR (TTF): 0.65
[1]; Current smoker
  12 months OS: 20%
  Median TTF: 4.4 months
  Median survival (OS): 6.4 months
  HR (OS): 1.3
  HR (TTF): 0.70
[1]; Female (n = 33)
  12 months OS: 52.9%
  Median TTF: 4.6 months
  Median survival (OS): 12.7 months
  HR (OS): 1.24
  HR (TTF): 0.91
[1]; Former smoker (<30 years)
  Median TTF: 4.2 months
  HR (TTF): 0.55
[1]; [2]
  Median TTF: 5.6 months
  HR (TTF): 0.39
[1]; [3]
  Median TTF: 5.6 months
  HR (TTF): 0.43
[1]; [4]
  12 months OS: 42.1%
  Median survival (OS): 9.9 months
  HR (OS): 1.15
[1]; Male (n = 89)
  12 months OS: 56.4%
  Median TTF: 3.7 months
  Median survival (OS): 14.1 months
  HR (OS): 0.70
  HR (TTF): 0.7
[1]; NS + Former smoker (<30 years)
  12 months OS: 78%
  Median survival (OS): 20.2 months
  HR (OS): 0.37
[1]; NS + Former smoker (≤20 years)
  12 months OS: 80%
  Median survival (OS): 20.2 months
  HR (OS): 0.23
[1]; NS + Former smoker (≤25 years)
  12 months OS: 82.3%
  Median survival (OS): 20.7 months
  HR (OS): 0.29
[1]; [5]
  12 months OS: 83.0%
  Median survival (OS): 20.7 months
  HR (OS): 0.27
[1]; NSQ (n = 76)
  12 months OS: 56.7%
  Median survival (OS): 13.4 months
  HR (OS): 0.58
[1]; NSQ (n = 78)
  Median TTF: 4.6 months
  HR (TTF): 0.61
[1]; Never smoker
  Median TTF: 5.6 months
  HR (TTF): 0.51
[1]; Never smoker (NS)
  12 months OS: 85.7%
  Median survival (OS): 16.2 months
  HR (OS): 0.2
[1]; OR to chemotherapy (n = 55)
  12 months OS: 59% and 57.9%
  Median TTF: 5.3 months
  Median survival (OS): 13.2 months
  HR (OS): 0.72
  HR (TTF): 0.56
[1]; SD to chemotherapy (n = 67)
  12 months OS: 54%
  Median TTF: 3.6 months
  Median survival (OS): 13.6 months
  HR (OS): 0.82
  HR (TTF): 0.95
[1]; SQ (n = 46)
  12 months OS: 52.6%
  Median TTF: 3 months
  Median survival (OS): 13.2 months
  HR (OS): 1.41
  HR (TTF): 1.18
TERT572 peptide; 75 Vx-001 treated patients measured at least at W6, W18 or thereafter
  Patients who mounted a TERT572 specific immune response: 29.3%
TERT572 peptide; non-squamous (NSQ) NSCLC
  Patients with TERT572 specific immune response: 36%
TERT572 peptide; patients with natural immunity against TERT572
  Frequency of patients with vaccine-induced immune response: 15%
TERT572 peptide; patients without natural immunity against TERT572
  Frequency of patients with vaccine-induced immune response: 36.2%
TERT572 peptide; squamous (SQ) NSCLC
  Patients with TERT572 specific immune response: 13.3%
